We go through 1 compound from patent publication US20110173707A1 (priority 2008, published 2011).

Each structure is given as a SMILES string. In brackets after ≈: the same amount, converted by molar mass. Starred links: 1 amine or outer side, 2 acyl side, 3 side chain; linkers in the order of their positions; H or OH if unused. Positions of bridges follow the written chain, without caps; N, C: chain ends. Non-standard residues stand in square brackets, D forms with d. Residues, ends and D or L forms follow the SMILES beside them. X1 = CC1CC(C2=NC(C(=O)[*:2])CS2)N1[*:1]; NMeV = CN[CH](C(=O)O)C(C)C; X2 = O=C(C(O)CO[*:2])[*:1]; Pip = O=C(O)[CH]1CCCCN1; Dhb = C/C=C(\N)C(=O)O

In data set [1] the test system is type I IFN response (IFN-β induced Mx2-driven luciferase activity). Put plainly: Type I IFN reporter cell assay (Mx2-driven Firefly luciferase, NIH3T3 Mx2-Luc2). Type of data set: cell-based, murine. On the procedure: In FIG. 6A the type I IFN reporter cells were pretreated with different concentrations of Vioprolide A (0, 5, 10, 30, 50 or 100 ng/ml). After pre-treatment for two hours cells were stimulated with IFN-β (500 U/ml) in the continuous presence of the indicated Vioprolide concentrations. In FIG. 6B type I IFN reporter cells were pretreated with IFN-β ([…]). After four hours cells were additionally stimulated with different concentrations of Vioprolide A (0, 5, 10, 30, 50 or 100 ng/ml). Untreated cells were used as control (Crtl). Luciferase activity was measured after 24 hours and relative luminescent units (RLU) were calculated to one μg of protein detected by Bradford assay.
For measuring type I IFNs BAC-based reporter constructs have been used. BACs harbouring the cDNA of Firefly luciferase 2 (luc2) under control of the Mx2 promoter were engineered, NIH3T3 Mx2-Luc2. The change from Luc+ (pGL3 basic, Promega) used in the before mentioned reporter constructs to the next generation luciferase (pGL4.10, Promega) was performed, as Luc2 theoretically promised to achieve higher signal intensities and therefore might also be more practicable for further in vivo imaging experiments. This newly generated BAC was electroporated into the murine fibroblast cell line NIH/3T3.
After overnight incubation luciferase activity was determined and calculated according to protein levels to scale with the antiproliferative effects of Vioprolide. […] The median inhibitory concentration (IC50), which reduces IFN-induced responses by 50%, was calculated to be 10 ng/ml of Vioprolide A.
In FIG. 6A type I IFN reporter cells, NIH3T3 Mx2-Luc2 were pretreated with different concentrations of Vioprolide A (−, 5, 10, 30, 50 or 100 ng/ml). After pre-treatment for two hours cells were stimulated with IFN-β (500 U/ml) in the continuous presence of the indicated Vioprolide concentrations. In FIG. […] type I IFN reporter cells were pretreated with IFN-β (500 U/ml). After four hours cells were additionally stimulated with different concentrations of Vioprolide A (−, 5, 10, 30, 50 or 100 ng/ml). Untreated cells were used as control (CM). Luciferase activity was measured after 24 hours and relative luminescent units (RLU) were calculated to one μg of protein detected by Bradford assay.
Next, the effect of Vioprolide A on previously activated type I IFN signalling was addressed. This was performed to exclude a direct inhibitory interaction of this natural compound with IFN molecules or their cognate receptors type I IFN reporter cells were therefore stimulated with IFN-β four hours prior to treatment with different Vioprolide A concentrations. After overnight incubation cells were harvested and luciferase activity was assayed. […] A first significant reduction of luciferase activity (for p<0.05) could be visualized with 30 ng/ml Vioprolide A (FIG. 6B). The IC50 was identified to 20 ng/ml.

The test system of data set [2] is type I IFN responses (IFN-inducible Mx2-promoter, tdTomato). Put plainly: Mx2Tom reporter cells, tdTomato expression by flow cytometry. Format: cell-based. As to conditions: IFN-β plus different concentrations, overnight incubation. On the procedure: This allowed assessment of the Vioprolide A effect on the IFN system on a single cell level. Thus, cells were stimulated with IFN-β as wells as different concentrations of Vioprolide A and expression of tdTomato was analyzed after overnight incubation using flow cytometry.
In general terms: A flow cytometer gives signals particle by particle.

Data set [3] deals with type II IFN response (IFN-γ, Gbp2 promoter). Description: Type II IFN reporter cell assay (Gbp2-driven Renilla luciferase, NIH3T3 Gbp2-RLuc). As to conditions: 500 U/ml IFN-γ, Vioprolide A one hour later, all concentrations tested (50, 100, 200 ng/ml); not related to protein. Type of data set: cell-based, murine. On the procedure:
IFN-γ reporter NIH/3T3 cells harbouring the recombinant BAC Gbp2RLuc were seeded on 96-well-plates and treated with IFN-γ ([…]) or left untreated (“−”). After one hour cells were exposed to different concentrations of Vioprolide A (−, 50, 100 or 200 ng/ml) and incubated overnight. Gbp2-driven Renilla luciferase expression was determined by luciferase assay. Results are expressed as fold induction of basal expression (n=3).
In addition, Vioprolide A might also modulate type II IFN responses. […] Hereby, expression of Renilla luciferase is driven by the type II IFN responsive promoter of the Gbp2 gene obtained using a BAC containing the GBP2 gene locus and following the method described above. In this experiment, reporter cells, NIH3T3 Gbp2-RLuc were seeded on […], stimulated with 500 U/ml IFN-γ and one hour later incubated with different concentrations of Vioprolide A. Afterwards the IFN response was analysed by quantifying Renilla luciferase activity. Since this assay was performed on a microtiter format, quantification of protein amounts by former used BCA as well as Bradford assay was impossible. […] Thus, evidence for a negative influence of Vioprolide A on both type I and type II IFN responses was provided.

For data set [4], the system named is type I interferon response (Mx2-promoter controlled luciferase). Put plainly: Bioluminescent imaging of type I IFN reporter mice (BAC Mx2Luc2). Type of data set: in vivo. As to conditions: 20 μg i.v., IFN-β i.v. after 1 h. The protocol: In FIG. 8 the inhibitory response of Vioprolide A on the type I interferon response is shown. In FIG. 8A a female type I IFN reporter mice, which contain the IFN-responsive BAC Mx2Luc2, were i.v. treated with 20 μg of Vioprolide A (in 100% EtOH). First image was taken immediately after Vioprolide A treatment. After 1 h mice were i.v. injected with 5.000 U/ml IFN-β (PBL). Three hours after IFN-treatment second series of images were taken. For control one animal was only treated with Vioprolide A or with IFN, respectively. Bioluminescent images were obtained using the IVIS200 System (Xenogen). […] Rainbow scales indicate number of photons measured per second×cm2×sr.
For the following in vivo experiment 20 μg of Vioprolide A were employed. This amount was calculated according to a publication appointing the lethal dose of this compound to be 3 mg/kg and moreover to concentrations used for anti-tumour studies Thus, type I IFN reporter mice were intravenously injected with Vioprolide A and subjected for bioluminescent imaging. After one hour mice were additionally treated with IFN-β and responses were assessed after a three-hour incubation time. […]
In FIG. 8A female type I IFN reporter mice, which contain the IFN-responsive BAC Mx2Luc2, were i.v. treated with 20 μg of Vioprolide A (in 100% EtOH). […] Rainbow scales indicate number of photons measured per second×cm2×sr.

The subject of data set [5] is vesicular stomatitis virus (VSV). Format: cell-based.
For data set [6] the following is noted: according to a publication; cited from earlier work.

With `C/C=C1\NC(=O)C2CSC(=N2)C2CC(C)N2C(=O)C(CC(C)C)NC(=O)C(C)NC(=O)C(O)COC(=O)C(C(C)C)N(C)C(=O)C(C(C)O)NC(=O)C2CCCCN2C1=O` (stereo not shown) [Vioprolide A] (AL[X1][Dhb][Pip]T[NMeV]; linker N-C via X2; configuration not given here), the reporter expression result in data set [1] (100 ng/ml, IFN-β four hours prior to treatment) is given as “significant reduction of reporter expression”. The “Mx2-driven luciferase activity at strongest inhibition” value in data set [1] (100 ng/ml, pre-treatment 2 h before IFN-β, FIG. 6A) was “dramatic decrease of Mx2-driven luciferase activity down to background levels”. Also, the “IC50 on previously activated type I IFN signalling” value in data set [1] (IFN-β (500 U/ml) four hours prior to Vioprolide A, FIG. 6B) amounted to 0.02 µg/mL (≈ 0.0232 µM). For the same compound, in data set [1] (IFN-β four hours prior to Vioprolide A, FIG. 6B), the “concentration giving first significant reduction of luciferase activity (p<0.05)” value came to 30 ng/mL. The “median inhibitory concentration (IC50), which reduces IFN-induced responses by 50%” value in data set [1] (Vioprolide A two hours prior to IFN-β (500 U/ml), luciferase related to protein, FIG. 6A) came out at 0.01 µg/mL. Further, the “impact on IFN responses in vitro compared within the class of Vioprolides” value in data set [1] (cell culture systems, screening) is “highest impact on IFN responses in vitro”. Besides, the “effect on the type I IFN response” value in data set [1] (pre-treatment 2 h before IFN-β, all concentrations tested (5-100 ng/ml)) is “inhibitory effect”. Moreover, in data set [2], the “effect on tdTomato reporter expression” value is “dose-dependent inhibitory effect”. The “response to type II IFN (Renilla luciferase activity)” value in data set [3] is given as “decreased response to type II IFN”. For the same compound, the “light emission after IFN treatment relative to combined IFN and Vioprolide stimulation” value in data set [4] (3 h after IFN, average radiance, FIG. 8B) is “ten times higher”. For the same compound, the “luciferase activity by optical imaging versus animal given IFN-β alone” value in data set [4] (imaging 3 h after IFN, one mouse per stimulation) was “less luciferase activity”. Further, the “effect on IFN-mediated antiviral activities” value in data set [5] is listed as “inhibitory effect on IFN-mediated antiviral activities”. Moreover, in data set [6], the lethal dose is 3 mg/kg.
